Measurements as given in publication PMC2212116 (The Journal of Experimental Medicine, 1998).

Test system: mouse and human MHC class II molecules
Assay: Competitive assay for MHC class II binding, alleles taken together
Conditions: competition with known conventional peptide antigens that bind to the class II groove

## H2B10–33: epitope for other pathogenic Th cells of lupus, localized in histone H2B10–33
  binding to class II alleles (in words): did not show promiscuous binding
